Laboratory results from ChEMBL document CHEMBL3507680, “University of Dundee, Gates Library screen for HepG2 cell viability”.

Assay: Human HepG2 cell viability assay in 384 well format
Assay type: toxicity, cell-based
Parameters: dose 125 nL, time 70.5 hour; cytotoxicity at 70.5 h: concentration not given beside the values
Conditions: HepG2 cells, read-out: Inhibition

Compound | cytotoxicity at 70.5 h
CC(NC(=O)N(C)Cc1cccc(OC(F)F)c1)c1nncn1C (stereo not given) | -5.84%
Cc1nc(C2CCCN(C(=O)c3sc(C)nc3C)C2)no1 (stereo not given) | 37.2%
Cc1nc(C2CCCN(C(=O)c3cnc(C)s3)C2)no1 (stereo not given) | 10.2%
O=C(CN1CCc2ccccc21)NCc1ccc(Cl)cc1 | 3.34%
COc1ccc(NC(C)C(=O)N2CCN(c3ccccc3)CC2)cn1 (stereo not given) | -3.71%
CCCC(=O)N1CCC(C(=O)NCCN2CCC(C)CC2)CC1 | -1.92%
CCCN(C)C(=O)c1cc(S(=O)(=O)NCC)ccc1C | -1.03%
CC1CCN(CCNC(=O)C2CCN(C(=O)C3CC3)CC2)CC1 | -3.28%
CS(=O)(=O)Nc1ccc(CNC(=O)CN2CCc3ccccc32)cc1 | 7.44%
CN(C)CCN(Cc1ccc(C(F)(F)F)cc1)C(=O)c1cc[nH]n1 | 16.2%
CN(C)CCN(Cc1ccc(Cl)cc1)C(=O)c1ccncc1 | -1.83%
CCCN1CCN(S(=O)(=O)c2ncn(C)c2Cl)CC1 | -4.77%
Cc1ccc(NC(=O)NC(C)(C)c2noc(C)n2)cc1 | 7.68%
COCc1ccc(CNC(=O)CN2CCc3ccccc32)cc1 | 1.24%
NS(=O)(=O)N1CCc2ccc(NC(=O)CCc3ccncc3)cc21 | 22.2%
NS(=O)(=O)N1CCc2ccc(NC(=O)CC(F)(F)F)cc21 | -1.59%
Cc1nc(C(C)(C)NC(=O)Nc2ccncc2)no1 | -0.296%
CC(C#N)CSc1ccccc1NCC(=O)NC1CCCCC1 (stereo not given) | -1.2%
COCCN(Cc1ccc(F)cc1Cl)C(=O)c1cc(C)n[nH]1 | -0.839%
Cc1cc(NC(C)C(=O)N2CCN(c3ncccn3)CC2)ccc1F (stereo not given) | 9.5%
Cc1ccc(OCC(=O)Nc2ncccc2OC(F)F)cc1 | -1.62%
CC(C)NC(=O)CCNC(=O)c1cc(Br)cn1C(C)C | 1.21%
COc1ccccc1-c1noc(CNc2ccc(F)cc2OCCO)n1 | 9.78%
N#Cc1cccc(OCC(=O)N(Cc2ccsc2)C2CC2)c1 | -12%

Compound | cytotoxicity at 70.5 h
CCOc1ccc(OCC)c(NCc2cc(C)on2)c1 | 8.35%
Cc1nnc2n1CC(CNc1ncnc3ccccc13)CC2 (stereo not given) | -11.6%
CCc1[nH]n(C)c(=N)c1-c1ccc2c(c1)OCO2 | -6.78%
CCNC(=O)N1CCC(NC(=O)NCCCc2cccc(F)c2)C1 (stereo not given) | -4.92%
Cc1ccc2cc(C(=O)N3CCS(=O)(=O)CC3)[nH]c2c1 | -12.3%
OCc1cc2ccccc2nc1NCC1CC1 | -4.89%
CCOc1ccc(C#N)cc1NCc1cc(C)on1 | 27.9%
CCNC(=O)N1CCC(NC(=O)NCCc2cccc(C)c2)C1 (stereo not given) | 4.49%
CCc1nc(Cn2c(=O)n(CC)c3ccccc32)no1 | -7.55%
OCc1cc2ccccc2nc1NC1CC=CC1 | -5.4%
Cc1nc(CN(CCS(C)(=O)=O)C(C)C)cs1 | -8.28%
CCOCCN1CCN(Cc2nnc(-c3occc3C)o2)CC1CC (stereo not given) | -5.31%
O=C(CN1CCOC(Cn2cccn2)C1)NC(C1CC1)C1CC1 (stereo not given) | -6.99%
FC(F)(F)c1cccc(N2CCC(NCc3cccnc3)CC2)c1 | 26.9%
CCC(SC)C(=O)N1CCC(n2cccn2)CC1 (stereo not given) | -6.08%
CSC(C)CC(=O)N1CCC(n2ccnn2)CC1 (stereo not given) | -8.7%
COCc1ccccc1CNC(=O)CN1CCC2(CCOC2)C1 (stereo not given) | 25%
c1cnn(-c2ccc(CCNC3CCN(C4CC4)C3)cc2)c1 (stereo not given) | 0.821%
CC(=O)N1CCCN(Cc2cc(F)cc(Br)c2)CC1 | 21%
N#Cc1ccc(OCCn2cccn2)cc1 | -16.4%
CC(C)(C)CC(=O)NCC(=O)Nc1ccn(Cc2cccnc2)n1 | 3.55%
CN1CC(C(=O)NC2(c3ccc(Cl)cc3)CCOCC2)CC1=O (stereo not given) | 2.23%
CCCOc1ccc(CNCCn2cccn2)cc1 | -12.1%
NS(=O)(=O)CC1CCCN1CCOc1ccccc1F (stereo not given) | -12.4%

Compound | cytotoxicity at 70.5 h
Cc1noc(C)c1CSC1CCCN(c2cnn(C)c2)C1=O (stereo not given) | 5.52%
NC(=O)N1CCCN(Cc2cc(F)cc(Br)c2)CC1 | -8.26%
COc1ccc(C(C)Nc2cnn(C)c(=O)c2Cl)cc1OC (stereo not given) | -3.5%
CNC(=O)CNC(=O)Nc1cc(-c2ccccc2)ns1 | 29.7%
CCc1n[nH]c(=O)c(C(=O)N2CCSC(C)(C)C2)c1CC | -10.1%
CCc1n[nH]c(=O)c(C(=O)N2CCOC3(CCCC3)C2)c1CC | -2.62%
CCC(NC(=O)NCc1cccc(N(C)C)n1)c1nccs1 (stereo not given) | 32.1%
O=C(NCC1CCN(c2ccncc2)CC1)C(O)c1ccccc1 (stereo not given) | 7.47%
COC(C)(C)CNC(=O)c1cn(-c2cccc(Cl)c2F)nn1 | 4.1%
FC(F)CN1CCC(NCCc2ccc(-n3cccn3)cc2)CC1 | -5.54%
CCC(=O)N1CCCN(Cc2cc(F)cc(Br)c2)CC1 | 16.2%
CN(CC(=O)NCC(F)(F)F)Cc1nc2c(s1)CCCC2 | -9.23%
CN(CC(=O)NCC1CCCO1)Cc1nc2c(s1)CCCC2 (stereo not given) | 25.9%
CN(Cc1ccc2c(c1)OCCO2)Cc1nnnn1-c1ccccc1 | -17.2%
COc1ccc(C2(NC(=O)C3CC(=O)N(C)C3)CCCC2)cc1 (stereo not given) | 20.4%
CC(C)n1nc2c(cc1=O)CN(CCOc1cccc(C#N)c1)CC2 | -8.86%
CC(C)n1nc2c(cc1=O)CN(CCOc1ccccc1C#N)CC2 | 6.74%
COCCCNC(=O)CN1CCOC(c2ccccc2)C1 (stereo not given) | 15.8%
COCCN1CCN(CC(=O)N(C)Cc2ccccc2)CC1C (stereo not given) | 53.1%
CCN(Cc1cccc(NC(=O)COC)c1)C(C)=O | 27.5%
O=C(NCC1CCOC1)c1csc(Cc2ccccc2)n1 (stereo not given) | 19.4%
Cc1cccc(C)c1OCCNC(=O)CNC(=O)C1CCCC1 | 23.5%
COc1ccccc1-c1cc(NC(=O)CCC2CCCO2)[nH]n1 (stereo not given) | 36.9%
COc1ccccc1-c1cc(NC(=O)CCS(=O)(=O)C2CCCC2)[nH]n1 | 25.9%

Compound | cytotoxicity at 70.5 h
COc1ccccc1-c1cc(NC(=O)COCC2CC2)[nH]n1 | -4.9%
O=C(Cc1csc(N2CCNC2=O)n1)NCC1(c2ccccc2)CC1 | 24.5%
O=C(Cc1csc(N2CCNC2=O)n1)NC(c1ccccc1)C1CC1 (stereo not given) | -3.72%
O=C(Cc1csc(N2CCNC2=O)n1)NC1(c2ccccc2)CCC1 | -8.91%
CN(CCCc1cc(-c2cccc(F)c2)n[nH]1)C(=O)Cn1cncn1 | 22.1%
C[C@@H]1CN(Cc2ccccc2)CCN1C(=O)NCc1nccs1 | 0.13%
Cc1nccc(CNC(=O)N2CCN(Cc3ccccc3)C[C@H]2C)n1 | -8.68%
CC/C=C(/C)C(=O)N1CCN(C2=NCC(C)S2)CC1 (stereo not given) | 32.7%
CN1CCC(NC(=O)Nc2ccc(F)c(Br)c2)C1=O (stereo not given) | 21%
CCn1nc2c(cc1=O)CN(Cc1ccc(-n3cccn3)cc1)CC2 | 2.14%
CC(C)n1nc2c(cc1=O)CN(Cc1ccc(-n3cccn3)cc1)CC2 | 24.1%
Cc1ccc(-n2ccnc2)c(C(=O)NCCCN(C)C)c1 | 2%
CC(CCS(C)(=O)=O)NC(=O)NCc1ccc2c(c1)CCC2 (stereo not given) | -6.48%
Cc1cccc(C)c1OCCNC(=O)C[S+]([O-])C1CCCC1 (stereo not given) | -5.72%
O=C(c1cnns1)N1CCN(c2ccc(F)cc2Cl)CC1 | 4.28%
O=C(C[S+]([O-])C1CCCC1)NCCOc1cccc(Cl)c1 (stereo not given) | -6.11%
Cc1cc(CN2CCN(S(=O)(=O)c3c(C)c(Cl)cc(C)c3Cl)CC2)on1 | -9.59%
Cc1cc(C(=O)NCCN2CCCC(C)C2)nn1C(C)(C)C (stereo not given) | -22.7%
CC(C)C(NC(=O)NCc1cccnc1N(C)C)c1cccs1 (stereo not given) | -20.8%
CCNc1cc2c(nn1)CCN(C(=O)c1ccc(-n3cccn3)nc1)C2 | -15.9%
O=C(Cn1cc(-c2ccccc2)cn1)N1CCNC1=O | -21.6%
O=C(CCOc1ccccc1F)N1CCC(O)CC1 | -9.54%
CC(CNC(=O)c1c[nH]nn1)Oc1ccc(Cl)cc1 (stereo not given) | -22.2%
NC(=O)c1cc(C2CCCN(Cc3ccc4c(c3)OCCO4)C2)n[nH]1 (stereo not given) | -22.9%

Compound | cytotoxicity at 70.5 h
Cc1nnc(-c2cccc(C#N)c2)n1C1CCN(C2CC2)C1=O (stereo not given) | 46%
Cn1ncnc1NCc1ccc(Cl)cc1 | -9.65%
Cn1ncnc1NCc1ccccc1Cl | -15.3%
CCCC(=O)NC1CCCN(Cc2cccs2)C1 (stereo not given) | -18.1%
CCN(CC1CCCO1)C(=O)NCCNC(=O)c1ccccc1F (stereo not given) | 43.4%
CCCN(CCc1ccccn1)C(=O)CCc1cnn(C)c1 | -10.1%
O=C(C1CCCN(CCc2ccc3c(c2)CCO3)C1)N1CCCC1 (stereo not given) | 44.9%
CC(C)CC(c1nc(-c2cnn(C)c2)no1)N1CCCCC1=O (stereo not given) | -3.04%
CCC(=O)NC1CCCN(Cc2ccc(NC(C)=O)cc2)C1 (stereo not given) | -4.65%
COc1cccc(CC2CCCN2CCCO)c1 (stereo not given) | -2.11%
CN(CC1CCN(CCO)CC1)CC(O)c1ccc(F)c(F)c1 (stereo not given) | 7.09%
CCCNC(=O)c1cccc2ncccc12 | -4.07%
Cc1ccc(C(C)N(C)CCS(=O)(=O)CCC(N)=O)cc1 (stereo not given) | -6.4%
COc1ccc(C(C)N2CCC(C(=O)N(C)C)CC2)cc1Cl (stereo not given) | -7.99%
O=C(CNc1cccc(S(=O)(=O)C(F)F)c1)Nc1ccccc1 | -5.1%
COc1ccc(C(C)N2CCC(CNC(C)=O)CC2)cc1Cl (stereo not given) | -1.84%
CC(C)c1ccc(-n2cc(O)c(C(=O)O)n2)cc1 | -5.79%
Cc1n[nH]cc1CNC1CCN(c2ccccc2)CC1 | 24.8%
Cn1cc(CNC2CCC(O)CC2)c(-c2cc3ccccc3o2)n1 (stereo not given) | -6.96%
Cc1n[nH]cc1CNC1CCN(c2ccc(F)cc2)CC1 | -8.94%
COc1cccc(CNC(C)c2ccc(-n3ccnc3)cc2)c1OC (stereo not given) | -8.35%
CC(C)(CNCc1ccc(OCc2cscn2)cc1)C(N)=O | 2.2%
CC(=O)N1CCCCCC1C1CCN(Cc2nnc(C(C)(C)C)o2)CC1 (stereo not given) | -5.64%
Cn1[nH]c(Br)c2/c(=N\CCN)ncnc1-2 | -7.01%
